Source: PubChem BioAssay AID1313 (NMMLSC, 2008)
Calls of active or inactive are those of the source.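 The calls were made as follows: active = compounds raising total GFP signal across six hours by more than 15% versus untreated cells; inactive = the rest.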 Peptide text beside a SMILES is read from it. * marks the point of attachment. Cbz = O=C(OCc1ccccc1)*

Tested on: S. cerevisiae Sic1-GFP degradation, flow cytometry time course
Test: yeast Sic1-GFP proteasomal turnover blockers – secondary assay, flow cytometry, S. cerevisiae (AID 1313)
Conditions: stronger effect = higher value; for GFP expression remaining at 240 min: measured here: earlier time point

For `CC(C)C[C@@H](C=O)NC(=O)[C@H](CC(C)C)NC(=O)[C@H](CC(C)C)NC(=O)OCc1ccccc1` (Cbz-Leu-Leu-Leu-aldehyde), the GFP expression remaining at 360 min was 1.68% (inactive) and the GFP expression remaining at 240 min was 3.24%.

In the case of `CC(=O)N1C(=O)C(=C2C=C(C)OC(C)=C2)c2ccccc21`, the GFP expression remaining at 360 min is reported as 0.71% (inactive) and the GFP expression remaining at 240 min is reported as 1.3%.
